Targets include ADRBK2 (human) (UniProt P35626); CDK6 CCND1 (human) (UniProt Q00534+P24385); STK25 (human) (UniProt O00506); CAMK1 (human) (UniProt Q14012); MARK2 (human) (UniProt Q7KZI7); CLK4 (human) (UniProt Q9HAZ1); PLK1 (human) (UniProt P53350); MAP3K11 (human) (UniProt Q16584); TAOK1 (human) (UniProt Q7L7X3); MAPK12 (human) (UniProt P53778); NTRK1 (human) (UniProt P04629); PAK4 (human) (UniProt O96013); PRKG2 (human) (UniProt Q13237); PAK3 (human) (UniProt O75914); RPS6KA3 KD1 KD2 (human) (UniProt P51812); PAK2 (human) (UniProt Q13177); WEE1 (human) (UniProt P30291); FGFR4 (human) (UniProt P22455); EPHB3 (human) (UniProt P54753); AXL (human) (UniProt P30530); MAPKAPK5 (human) (UniProt Q8IW41); LTK (human) (UniProt P29376); STK17A (human) (UniProt Q9UEE5); SRMS (human) (UniProt Q9H3Y6); MST1R (human) (UniProt Q04912); ROCK2 (human) (UniProt O75116); GRK6 (human) (UniProt P43250); ZAP70 (human) (UniProt P43403); PRKCG (human) (UniProt P05129); NEK9 (human) (UniProt Q8TD19); STK24 (human) (UniProt Q9Y6E0); SIK2 (human) (UniProt Q9H0K1); PLK2 (human) (UniProt Q9NYY3); NEK1 (human) (UniProt Q96PY6); RPS6KA1 KD1 KD2 (human) (UniProt Q15418); LRRK2 (human) (UniProt Q5S007); MAP3K10 (human) (UniProt Q02779); CDK9 CCNT1 (human) (UniProt P50750+O60563); RET (human) (UniProt P07949); PDPK1 (human) (UniProt O15530); NEK7 (human) (UniProt Q8TDX7).

Holding throughout (test): radiometric filter-binding kinase assay, Kinase HotSpot
Common to all, as to conditions: compound 0.5 µM; ATP 10 µM

The source of these data is the kinase profiling compilation of Christmann-Franck et al. (2016).

Sequence of RPS6KA3 KD1 KD2 (human) (P51812 whole entry, looked up): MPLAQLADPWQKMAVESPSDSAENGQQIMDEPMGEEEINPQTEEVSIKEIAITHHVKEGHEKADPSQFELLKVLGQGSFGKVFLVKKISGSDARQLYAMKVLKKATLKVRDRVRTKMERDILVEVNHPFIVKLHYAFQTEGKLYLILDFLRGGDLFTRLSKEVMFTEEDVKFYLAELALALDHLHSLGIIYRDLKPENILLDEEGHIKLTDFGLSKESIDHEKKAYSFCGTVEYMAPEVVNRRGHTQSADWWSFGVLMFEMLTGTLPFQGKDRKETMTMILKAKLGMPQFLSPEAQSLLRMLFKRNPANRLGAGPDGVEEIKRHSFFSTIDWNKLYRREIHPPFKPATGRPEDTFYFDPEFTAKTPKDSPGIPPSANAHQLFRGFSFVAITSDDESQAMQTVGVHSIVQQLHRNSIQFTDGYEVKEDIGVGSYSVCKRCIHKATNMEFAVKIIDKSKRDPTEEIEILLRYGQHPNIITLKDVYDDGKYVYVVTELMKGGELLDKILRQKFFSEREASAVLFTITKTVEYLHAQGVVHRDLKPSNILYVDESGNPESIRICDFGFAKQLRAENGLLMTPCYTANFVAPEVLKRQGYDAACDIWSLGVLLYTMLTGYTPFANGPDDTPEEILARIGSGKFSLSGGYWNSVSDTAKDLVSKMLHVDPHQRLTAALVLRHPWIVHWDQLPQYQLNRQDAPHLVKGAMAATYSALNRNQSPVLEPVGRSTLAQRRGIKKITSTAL
Sequence of CDK9 CCNT1 (human) (O60563 whole entry, looked up): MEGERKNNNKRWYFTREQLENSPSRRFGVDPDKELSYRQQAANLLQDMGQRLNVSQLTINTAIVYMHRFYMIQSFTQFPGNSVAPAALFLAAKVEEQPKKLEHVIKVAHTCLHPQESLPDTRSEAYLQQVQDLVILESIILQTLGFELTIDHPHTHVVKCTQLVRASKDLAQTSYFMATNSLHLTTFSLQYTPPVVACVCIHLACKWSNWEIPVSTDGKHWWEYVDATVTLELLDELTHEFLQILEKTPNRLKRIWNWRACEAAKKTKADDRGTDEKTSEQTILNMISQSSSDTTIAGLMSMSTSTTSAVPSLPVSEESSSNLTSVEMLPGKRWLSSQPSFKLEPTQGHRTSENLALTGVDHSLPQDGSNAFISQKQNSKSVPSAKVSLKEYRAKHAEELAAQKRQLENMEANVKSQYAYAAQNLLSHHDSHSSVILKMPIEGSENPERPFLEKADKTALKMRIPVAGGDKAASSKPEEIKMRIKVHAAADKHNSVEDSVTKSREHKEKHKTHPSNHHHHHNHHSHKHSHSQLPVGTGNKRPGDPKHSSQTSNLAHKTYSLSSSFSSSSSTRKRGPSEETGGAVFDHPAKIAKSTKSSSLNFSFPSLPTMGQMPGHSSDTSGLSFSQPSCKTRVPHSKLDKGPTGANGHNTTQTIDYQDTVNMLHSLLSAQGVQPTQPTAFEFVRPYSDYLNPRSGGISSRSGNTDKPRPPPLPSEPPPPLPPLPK
Sequence of CDK9 CCNT1 (human) (P50750 whole entry, looked up): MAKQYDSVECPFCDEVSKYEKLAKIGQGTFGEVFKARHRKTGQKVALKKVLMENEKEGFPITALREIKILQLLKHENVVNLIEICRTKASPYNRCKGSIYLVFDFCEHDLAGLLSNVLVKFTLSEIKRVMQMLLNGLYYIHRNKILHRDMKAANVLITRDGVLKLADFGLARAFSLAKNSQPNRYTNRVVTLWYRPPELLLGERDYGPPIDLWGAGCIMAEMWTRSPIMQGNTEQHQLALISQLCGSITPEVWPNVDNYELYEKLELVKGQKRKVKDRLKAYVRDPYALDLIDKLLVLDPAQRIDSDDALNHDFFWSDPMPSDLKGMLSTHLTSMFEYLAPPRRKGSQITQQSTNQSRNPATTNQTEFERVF
Sequence of LTK (human) (P29376 whole entry, looked up): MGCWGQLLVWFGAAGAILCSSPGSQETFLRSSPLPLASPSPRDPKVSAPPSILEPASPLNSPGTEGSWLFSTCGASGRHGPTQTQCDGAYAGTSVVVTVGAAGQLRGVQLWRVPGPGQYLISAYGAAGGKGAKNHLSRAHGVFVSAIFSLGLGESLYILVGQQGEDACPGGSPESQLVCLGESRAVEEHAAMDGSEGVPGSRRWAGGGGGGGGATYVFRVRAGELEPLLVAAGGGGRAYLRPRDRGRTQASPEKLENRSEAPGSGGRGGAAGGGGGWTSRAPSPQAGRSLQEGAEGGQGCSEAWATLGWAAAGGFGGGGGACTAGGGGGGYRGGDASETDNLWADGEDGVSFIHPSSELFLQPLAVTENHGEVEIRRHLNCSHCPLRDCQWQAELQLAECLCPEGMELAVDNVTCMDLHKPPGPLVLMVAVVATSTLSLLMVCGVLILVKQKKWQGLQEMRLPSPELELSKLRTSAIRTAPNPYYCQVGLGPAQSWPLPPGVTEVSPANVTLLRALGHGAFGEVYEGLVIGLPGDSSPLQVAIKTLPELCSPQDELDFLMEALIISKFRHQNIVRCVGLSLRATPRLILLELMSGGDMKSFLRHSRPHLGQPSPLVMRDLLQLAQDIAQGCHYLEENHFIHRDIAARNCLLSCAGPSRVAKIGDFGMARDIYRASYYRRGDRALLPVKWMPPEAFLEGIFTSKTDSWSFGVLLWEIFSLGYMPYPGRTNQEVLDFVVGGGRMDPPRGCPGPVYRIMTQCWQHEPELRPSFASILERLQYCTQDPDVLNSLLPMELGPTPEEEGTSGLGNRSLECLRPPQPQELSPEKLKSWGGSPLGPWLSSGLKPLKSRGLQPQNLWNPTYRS
Sequence of PDPK1 (human) (O15530 whole entry, looked up): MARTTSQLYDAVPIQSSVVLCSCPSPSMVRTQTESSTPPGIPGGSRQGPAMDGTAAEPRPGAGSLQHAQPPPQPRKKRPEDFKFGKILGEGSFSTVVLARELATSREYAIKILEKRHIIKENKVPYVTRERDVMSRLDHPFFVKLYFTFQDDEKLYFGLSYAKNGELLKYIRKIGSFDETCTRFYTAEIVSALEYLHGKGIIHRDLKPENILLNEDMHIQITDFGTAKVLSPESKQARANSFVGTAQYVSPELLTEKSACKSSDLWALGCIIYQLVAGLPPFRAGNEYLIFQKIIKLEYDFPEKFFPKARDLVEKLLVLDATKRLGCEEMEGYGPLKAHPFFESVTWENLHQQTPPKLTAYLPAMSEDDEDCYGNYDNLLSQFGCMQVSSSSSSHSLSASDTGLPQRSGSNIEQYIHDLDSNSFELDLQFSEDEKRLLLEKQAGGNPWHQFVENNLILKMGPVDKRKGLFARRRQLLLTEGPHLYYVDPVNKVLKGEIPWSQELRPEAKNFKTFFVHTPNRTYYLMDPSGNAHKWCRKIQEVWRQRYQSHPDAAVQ
Sequence of NEK1 (human) (Q96PY6 whole entry, looked up): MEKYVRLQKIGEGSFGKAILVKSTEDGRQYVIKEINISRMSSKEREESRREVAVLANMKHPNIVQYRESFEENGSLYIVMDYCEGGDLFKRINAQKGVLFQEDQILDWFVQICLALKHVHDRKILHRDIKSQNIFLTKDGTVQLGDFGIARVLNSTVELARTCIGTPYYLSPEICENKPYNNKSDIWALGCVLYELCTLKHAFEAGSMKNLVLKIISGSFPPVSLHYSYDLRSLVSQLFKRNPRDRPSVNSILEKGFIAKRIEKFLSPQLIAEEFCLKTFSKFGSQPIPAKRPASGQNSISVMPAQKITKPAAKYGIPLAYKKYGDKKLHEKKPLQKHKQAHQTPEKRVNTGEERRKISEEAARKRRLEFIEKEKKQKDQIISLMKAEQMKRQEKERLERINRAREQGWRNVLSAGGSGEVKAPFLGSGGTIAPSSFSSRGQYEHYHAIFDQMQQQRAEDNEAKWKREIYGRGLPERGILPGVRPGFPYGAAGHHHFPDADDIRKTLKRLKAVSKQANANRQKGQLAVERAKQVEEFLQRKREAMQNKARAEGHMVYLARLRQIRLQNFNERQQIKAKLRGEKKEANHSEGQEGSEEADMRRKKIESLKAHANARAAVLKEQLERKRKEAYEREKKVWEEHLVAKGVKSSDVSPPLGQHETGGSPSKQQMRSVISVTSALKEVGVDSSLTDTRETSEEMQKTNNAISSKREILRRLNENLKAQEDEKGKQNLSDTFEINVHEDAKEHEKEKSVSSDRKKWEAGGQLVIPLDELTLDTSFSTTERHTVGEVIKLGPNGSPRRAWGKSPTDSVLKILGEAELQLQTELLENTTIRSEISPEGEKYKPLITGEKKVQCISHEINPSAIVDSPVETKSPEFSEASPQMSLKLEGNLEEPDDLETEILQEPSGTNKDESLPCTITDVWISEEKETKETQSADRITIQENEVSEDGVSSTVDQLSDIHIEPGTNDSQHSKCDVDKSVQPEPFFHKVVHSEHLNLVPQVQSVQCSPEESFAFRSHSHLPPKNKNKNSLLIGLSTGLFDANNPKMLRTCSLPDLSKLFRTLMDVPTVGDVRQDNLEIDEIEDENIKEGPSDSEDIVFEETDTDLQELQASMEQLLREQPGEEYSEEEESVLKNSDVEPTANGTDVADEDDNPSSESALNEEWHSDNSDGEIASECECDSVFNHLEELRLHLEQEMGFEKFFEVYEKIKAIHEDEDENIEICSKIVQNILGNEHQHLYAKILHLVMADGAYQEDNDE
Sequence of CLK4 (human) (Q9HAZ1 whole entry, looked up): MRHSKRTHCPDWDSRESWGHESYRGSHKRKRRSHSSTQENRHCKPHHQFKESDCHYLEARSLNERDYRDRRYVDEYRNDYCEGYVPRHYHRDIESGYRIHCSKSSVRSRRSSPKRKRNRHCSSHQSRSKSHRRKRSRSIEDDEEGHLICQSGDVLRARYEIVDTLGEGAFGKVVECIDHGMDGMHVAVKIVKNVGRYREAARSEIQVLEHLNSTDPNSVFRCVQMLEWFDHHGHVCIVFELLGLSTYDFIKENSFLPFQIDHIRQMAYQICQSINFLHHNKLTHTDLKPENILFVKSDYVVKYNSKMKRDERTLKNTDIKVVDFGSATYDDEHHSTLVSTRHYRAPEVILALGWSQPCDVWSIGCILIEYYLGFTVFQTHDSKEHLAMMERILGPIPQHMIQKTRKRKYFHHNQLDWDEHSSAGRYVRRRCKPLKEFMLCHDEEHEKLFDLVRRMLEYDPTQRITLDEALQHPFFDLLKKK

As usually defined, the residual activity is the signal under treatment as a percentage of the control signal. Take `COc1cc2c(cc1OC)-c1[nH]nc(Nc3cccc(F)c3)c1C2`: the residual activity came out at 98.4% at ADRBK2 (human); 92.9% at CDK6 CCND1 (human); 103% at STK25 (human); 98.4% at CAMK1 (human); 77.2% at MARK2 (human); 77.7% on CLK4 (human). For the same compound, the residual activity turned out to be 102% at PLK1 (human); 93.9% on MAP3K11 (human); 76.3% on TAOK1 (human); 101% on MAPK12 (human); 98.8% at NTRK1 (human); 89.9% on PAK4 (human). Besides, the residual activity at PRKG2 (human) came to 92.5%; on PAK3 (human) it was 93.1%; on RPS6KA3 KD1 KD2 (human), 94.7%; at PAK2 (human) it was 99.6%; on WEE1 (human) it was 93%; on FGFR4 (human), 91.6%. Besides, the residual activity is 97.2% at EPHB3 (human); 96.1% on AXL (human); 82.3% at MAPKAPK5 (human); 93.3% at LTK (human); 87% on STK17A (human); 99.9% at SRMS (human). For the same compound, the residual activity on MST1R (human) was 99.1%; at ROCK2 (human), 95.2%; on GRK6 (human), 89.4%; on ZAP70 (human) it was 95.3%; on PRKCG (human) it was 102%; on NEK9 (human), 102%. The residual activity at STK24 (human) worked out at 99.9%; at SIK2 (human), 38.6%; on PLK2 (human), 97.1%; on NEK1 (human) it was 93%; on RPS6KA1 KD1 KD2 (human) it was 84.1%; on LRRK2 (human) it was 82.3%. In addition, the residual activity on MAP3K10 (human) was determined as 87.1%; on CDK9 CCNT1 (human), 97.6%; on RET (human), 83.6%; on PDPK1 (human) it was 95.9%; on NEK7 (human), 100%.

In the case of `CN[C@@H]1C[C@H]2O[C@@](C)([C@@H]1OC)n1c3ccccc3c3c4c(c5c6ccccc6n2c5c31)C(=O)NC4`, the residual activity was 6.62% on CLK4 (human); -1.27% on RPS6KA3 KD1 KD2 (human); 0.543% on LTK (human); 3.99% on NEK1 (human); 1.38% on CDK9 CCNT1 (human); 4.41% on PDPK1 (human).
